Measurements published in US20240108557A1, “TOPICAL COMPOSITION USEFUL FOR THE DAILY CARE OF ACNE-PRONE SKIN” (Pierre Fabre Dermo-Cosmetique, priority 2021, published 2024).

Tested on: Stratum corneum
Test: AFM elastic modulus of Stratum corneum in skin explants (keratolytic effect)
Parameters: species or system human
Conditions: three topical applications, succinic acid 0.6 wt %, lactic acid 0.36 wt %, alone or combined (ratio 1.67)
Method: Keratolytic effect was assessed by observing the skin biomechanical properties modulation (skin stiffness modulation) induced by the tested agents using Atomic Force Microscopy (AFM) in skin explants. • 1 explant by donor and treatment • 3 distinct areas were measured by explant • A minimum of 12 measures by aera
Skin punchs of 1.2 cm were made from breast skin of women between 35 and 43 years old. […] First and second application during 1 hour, and the third-one during 3 hours. […] Mechanical properties of skin explants cryosections have been assessed, at Stratum corneum and epidermis areas, by AFM measurements.
AFM indentation experiments were carried out with a Resolve Bioscope (Bruker Nano Surface, Santa Barbara, CA) that was mounted on an inverted optical DM18 (Leica) and a top view Bruker. All measurements of skin stiffness were performed using cantilevers with conical tips. The cantilever moved with the relief of the skin surface. This deformation was quantified by the deflection of the laser beam who are correlated with biomechanical parameters of skin surface samples. Quantitative measure of elastic modulus was used to assess Stratum corneum or epidermis cell-cell junctions stiffness after treatment.

SMILES | inhibition of elastic modulus of Stratum corneum (stiffness reduction) compared to untreated control
CC(O)C(=O)O (centres unmarked) [lactic acid] | did not show any significant effect
O=C(O)CCC(=O)O [succinic acid] | did not show any significant effect
